Read-outs that look alike come from different tables or passages of the source.
What was measured:
Pythium ultimum = test: Threshold concentration test for use of the compounds against Pythium ultimum (infested soil, garden peas); assay type: in vivo; design: key to root evaluation (1-4): 4: white roots without fungous necrosis; 3: white roots, minor fungous necrosis; 2: brown roots, already more pronounced fungous necrosis; 1: heavy fungous necrosis, roots rotted; settings: for root evaluation (1-4): 3 weeks; for number of sound peas: 20 grains per dish, 3 weeks at 20-24° C.
Outline: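 Garden pea seeds, 20 per dish, went straight into Pythium ultimum-infested soil into which 20% pulverulent formulations had been uniformly blended. Sound plants counted and roots rated 1–4 after three weeks of hothouse growth at 20–24 °C.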

Plasmopara viticola = test: Prophylactic leaf treatment of grapevines in the hothouse against Plasmopara viticola; assay type: in vivo
Outline: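 Activity derived from average percentage of leaf surface infested per treatment. Plants with 5–8 leaves received preventive spray (20% spray powder formulation), then undersides inoculated with ~20,000 sporangia/ml; held at 22–24 °C with full humidity, reduced to 30–70% for 3–4 days, then saturated one day.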

[1] = system: Helminthosporium gramineum; test: Seed treatment in open field tests for infestation by Helminthosporium gramineum (barley); assay type: in vivo; settings: summer barley; 50 g active agent/100 kg barley; about 3 months
Procedure: Seed treatment in open field tests for infestation by Helminthosporium gramineum
The active agents were used in the form of pulverulent compositions. After about 8 months in case of winter barley and after about 3 months in case of summer barley the infested plants were counted and the activity was calculated by the formula [formula]

Botrytis cinerea [2] = test: Prophylactic leaf treatment of tomato plants against Botrytis cinerea; assay type: in vivo; settings: concentration of 0.025 of the active agent (unit not given)
Tilletia caries = test: Treatment of oat seeds infested with Tilletia caries (spore germination); assay type: in vivo
Helminthosporium gram = settings: about 5 weeks
Procedure: Treatment of barley seeds infested with Helminthosporium gram
After emergence, the plants were subjected to illumination for 12 hours per day. After about 5 weeks the infested plants were counted and the total number of plants for each test were also counted. The active agents tested were used as pulverulent compositions.

Piricularia oryzae = assay type: in vivo; settings: concentration of active agent 0.1 (percentages); 5 days
Venturia inaequalis = test: Prophylactic leaf treatment of apples in open field test against Venturia inaequalis; assay type: in vivo; settings: 3 weeks
Fusarium avenaceum = test: Inhibition of fungus in a nutrient solution: Fusarium avenaceum; assay type: cell-based; settings: 6 days at 21-23° C.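 Note: 0 means no fungus growth and higher grades mean more surface covered.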
Procedure: Inhibition of fungus in a nutrient solution
20 ml of a nutrient solution of grape juice and water (1:1) were filled into a glass vial of a 100 ml capacity and were mixed with the pulverulent active agents which appear from the subsequent table. Thereafter, the solution was inoculated with conidia (spores) of the test fungi.
After an incubation time of 6 days at 21° to 23° C. the fungus development on the surface of the nutrient solution was evaluated. The test fungi used were the following: Penicillium digitatum, Botrytis cinerea, Alternaria solani, Fusarium avenaceum.
The evaluation was carried out at a scale from 0 to 5 as follows: […]

Penicillium digitatum = test: Inhibition of fungus in a nutrient solution: Penicillium digitatum; assay type: cell-based; settings: 6 days at 21-23° C.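 Note: 0 means no fungus growth and higher grades mean more surface covered.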
Alternaria solani = test: Inhibition of fungus in a nutrient solution: Alternaria solani; assay type: cell-based; settings: 6 days at 21-23° C.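 Note: 0 means no fungus growth and higher grades mean more surface covered.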
Botrytis cinerea [3] = test: Inhibition of fungus in a nutrient solution: Botrytis cinerea; assay type: cell-based; settings: 6 days at 21-23° C.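 Note: 0 means no fungus growth and higher grades mean more surface covered.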
[4] = concentration of active agent 0.001 (unit not given)
[5] = concentration of active agent 0.005 (unit not given)
[6] = concentration of active agent 0.025 (unit not given)
[7] = concentration of active agent 0.005 (in gram)
[8] = concentration of active agent 0.025 (in gram)

SMILES | root evaluation (1-4) (Pythium ultimum; 20 mg/l soil) | number of sound peas (Pythium ultimum; 20 mg/l soil) | root evaluation (1-4) (Pythium ultimum; 40 mg/l soil) | number of sound peas (Pythium ultimum; 40 mg/l soil) | root evaluation (1-4) (Pythium ultimum; 80 mg/l soil) | number of sound peas (Pythium ultimum; 80 mg/l soil) | % activity (Plasmopara viticola; [4]) | % activity (Plasmopara viticola; [5]) | % activity (Plasmopara viticola; [6]) | % activity [1] | % activity (Botrytis cinerea [2]) | % activity (Tilletia caries; 10 g active agent per 100 kg) | % activity (Tilletia caries; 20 g active agent per 100 kg) | % activity (Tilletia caries; 50 g active agent per 100 kg) | % activity (Helminthosporium gram; 50 g active agent per 100 kg) | % activity (Piricularia oryzae) | fungus development on the surface of the nutrient solution (0-5) (Penicillium digitatum; 0.002%) | fungus development on the surface of the nutrient solution (0-5) (Penicillium digitatum; 0.004%) | fungus development on the surface of the nutrient solution (0-5) (Alternaria solani; 0.002%) | fungus development on the surface of the nutrient solution (0-5) (Alternaria solani; 0.004%) | further results
CCS(=O)(=O)c1nnc(C(=O)N2CCCC2)s1 [5-ethylsulfonyl-1,3,4-thiadiazole-2-carboxylic acid-N,N-tetramethylene-amide] | 2 | 14 | 4 | 20 | 4 | 20 | 91% | 99% | 100% | 100% | 75% | 100% | 100% | 100% | 99% | – | – | – | – | – | % activity (Helminthosporium gram; 10 g active agent per 100 kg): 98%; % activity (Helminthosporium gram; 20 g active agent per 100 kg): 100%
CCNC(=O)c1nnc([S+](C)[O-])s1 (stereo not shown) [5-methylsulfinyl-1,3,4-thiadiazole-2-carboxylic acid-ethylamide] | 2 | 18 | 4 | 18 | 4 | 19 | – | – | 96% | – | 75% | – | 100% | 100% | 100% | 90% | – | – | – | – | % activity (Helminthosporium gram; 10 g active agent per 100 kg): 98%; % activity (Helminthosporium gram; 20 g active agent per 100 kg): 99%
CCCCNC(=O)c1nnc(S(C)(=O)=O)s1 [5-methylsulfonyl-1,3,4-thiadiazole-2-carboxylic acid-butylamide] | 2 | 14 | 4 | 15 | 4 | 16 | 83% | 99.1% | – | 99.3% | 76% | 99.2% | 100% | 100% | 90% | 90% | – | – | – | – | % activity (Venturia inaequalis; [7]): 94%; % activity (Venturia inaequalis; [8]): 99%
COC(=O)c1nnc(S(C)(=O)=O)s1 [5-methylsulfonyl-1,3,4-thiadiazole-2-carboxylic acid-methylester] | – | – | – | – | – | – | – | – | – | – | – | – | – | – | – | – | 1 | 0 | 1 | 0 | fungus development on the surface of the nutrient solution (0-5) (Fusarium avenaceum; 0.002%): 0; fungus development on the surface of the nutrient solution (0-5) (Fusarium avenaceum; 0.004%): 0; fungus development on the surface of the nutrient solution (0-5) (Botrytis cinerea [3]; 0.002%): 1; fungus development on the surface of the nutrient solution (0-5) (Botrytis cinerea [3]; 0.004%): 0
CCCNC(=O)c1nnc(S(C)(=O)=O)s1 [5-methylsulfonyl-1,3,4-thiadiazole-2-carboxylic acid-propylamide] | 4 | 15 | 4 | 15 | 4 | 15 | – | 82% | 95% | 100% | 76% | 99.5% | 100% | 100% | 93% | 90% | – | – | – | – | % activity (Venturia inaequalis; [7]): 98%; % activity (Venturia inaequalis; [8]): 99.7%
CCCCCCNC(=O)c1nnc(S(=O)(=O)CCC)s1 [5-propylsulfonyl-1,3,4-thiadiazole-2-carboxylic acid-hexylamide] | – | – | – | – | – | – | 88% | 98% | 100% | – | 78% | – | 100% | 100% | – | 95% | – | – | – | – | –
O=C1c2ccccc2C(=O)N1SC(Cl)(Cl)Cl [N-trichloromethylmercapto-phthalimide, reference compound] | – | – | – | – | – | – | – | – | – | – | – | – | – | – | – | – | 4 (30 to 60% of the surface covered by the fungus turf) | 4 (30 to 60% of the surface covered by the fungus turf) | 4 (30 to 60% of the surface covered by the fungus turf) | 4 (30 to 60% of the surface covered by the fungus turf) | fungus development on the surface of the nutrient solution (0-5) (Fusarium avenaceum; 0.002%): 4 (30 to 60% of the surface covered by the fungus turf); fungus development on the surface of the nutrient solution (0-5) (Fusarium avenaceum; 0.004%): 4 (30 to 60% of the surface covered by the fungus turf); fungus development on the surface of the nutrient solution (0-5) (Botrytis cinerea [3]; 0.002%): 4 (30 to 60% of the surface covered by the fungus turf); fungus development on the surface of the nutrient solution (0-5) (Botrytis cinerea [3]; 0.004%): 3 (10 to 30% of the surface covered by the fungus turf)
O=C1C2CC=CCC2C(=O)N1SC(Cl)(Cl)Cl (stereo not shown) [N-trichloromethylmercapto-tetrahydro-phthalimide, reference compound] | 1 | 1 | 1 | 2 | 2 | 8 | – | – | – | – | – | – | – | – | – | – | 4 (30 to 60% of the surface covered by the fungus turf) | 4 (30 to 60% of the surface covered by the fungus turf) | 4 (30 to 60% of the surface covered by the fungus turf) | 4 (30 to 60% of the surface covered by the fungus turf) | fungus development on the surface of the nutrient solution (0-5) (Botrytis cinerea [3]; 0.002%): 4 (30 to 60% of the surface covered by the fungus turf); fungus development on the surface of the nutrient solution (0-5) (Botrytis cinerea [3]; 0.004%): 4 (30 to 60% of the surface covered by the fungus turf)

Reference: patent US4281121A, “1,3,4-Thiadiazole-2-carboxylic acid derivatives, process for making the same and fungicidal and nematocidal compositions containing same” (Schering Aktiengesellschaft, priority 1978, dated 1981)
